Experimental data published in patent US8410144B2, “Substituted indolo-pyridinone compounds” (ArQule, Inc., priority 2009, dated 2013).

Experiments:
[1] = test system: DLD-1; assay: MTS assay, DLD-1 cells; format: cell-based; conditions: Homo sapiens, 72 hours, read-out: DLD-1, MTS cell kill % inhibition
Description: (§1) Cells were maintained at 37° C., 5% CO2 in DMEM media supplemented with 1% fetal bovine serum, penicillin/streptomycin and fungizone (Invitrogen). Cells were seeded into 96-well tissue culture plates at 3000 per well and cultured at 37° C. for 18 hours. Test compounds were dissolved and diluted to 300× in DMSO then diluted 1:40 in DMEM. Cells were incubated with test compounds for 72 hours followed by incubation with tetrazolium compound (3-(4,5-dimethylthiazol-2-yl)-5-(3-carboxymethoxyphenyl)-2-(4-sulfophenyl)-2H-tetrazolium, inner salt; MTS) and the electron coupling reagent, phenazine methosulfate (PMS) for 4 hours. […] The ability of compounds to inhibit cell growth in this assay is correlated with the reduction of dehydrogenase enzyme activity found in metabolically active cells. The measurement of the absorbance of the formazan was assessed using an ENVISION™ (Perkin Elmer) microplate reader at 492 nm. The calculated IC50 value is the concentration of the test compound that causes a 50% decrease in the absorbance.

[2] = test system: KATO III; assay: MTS assay, KATO III cells; format: cell-based; conditions: Homo sapiens, 72 hours, read-out: KATO III, MTS cell kill % inhibition
Description: as §1

[3] = test system: NCI-H1299; assay: MTS assay, NCI-H1299 cells; format: cell-based; conditions: Homo sapiens, 72 hours, read-out: NCI-H1299, MTS cell kill % inhibition
Description: as §1

[4] = biological target: IGF-1R (Homo sapiens, UniProt P08069); assay: IGFR1 activity assay (ELISA); format: biochemical; conditions: read-out: IGF-1R, PCT INH (30 μM), ELISA
Description: The disclosed compounds were assayed for their ability to inhibit insulin-like growth factor receptor-1 (IGFR1). Nunc Maxisorb plates were coated with streptavidin by overnight incubation with 100 μL per well of 1 μg/ml Streptavidin in DPBS. Prior to the start of the experiment, the plates were washed with TBST (3×200 μL) and blocked for at least 1 hour by adding 150 μL of 5% BSA/TBST. The plates were washed with TBST (3×200 μL/well) and left to dry immediately before the capture step.
The disclosed test articles and controls (Staurosporine) were prepared using the following assay buffer at 3× desired final concentration (50 mM Tris-HCl, 0.02 mg/ml BSA, 10 mM MgCl2, 0.1 mM Na3VO4, 1 mM EGTA, 12.5 μM ATP, 0.01% NP-40, 1 mM DTT in 10% glycerol/water). 20 μL of the test compounds (or control), 20 μL IGF1R (0.33 ng/μL final concentration), and 20 μL of Pyk-2 (0.05 ng/μL final concentration) were rapidly added to the reaction plate. The plate was incubated at room temperature for one hour.
50 μL was transferred from the reaction plate to the streptavidin coated plate. The capture plate was incubated at room temperature for 30 minutes, then washed with TBST three times. 100 μL/well of Cell Signaling anti-phospho tyrosine was added to the capture plate at a dilution of 1:3000 in 2% BSA/TBST. The plate was incubated for one hour at room temperature then washed 6× with TBST. 100 μL/well of alkaline phosphatase tagged goat anti mouse antibody was added to the capture plate at a dilution of 1:4000 in 2% BSA/TBST. The plate was incubated for one hour at room temperature then washed with TBST six times.
The fluorescent readout is initiated by the addition of 100 μL/well of Attophos reagent (6 mg/10 mL). The reading is done on the Perkin Elmer Envision system.

[5] = test system: MDA-MB-231; assay: MTS assay, MDA-MB-231 cells; format: cell-based; conditions: Homo sapiens, 72 hours, read-out: MDA-MB-231, MTS cell kill % inhibition
Description: as §1

IGF-1R, sequence (P08069 31-1367): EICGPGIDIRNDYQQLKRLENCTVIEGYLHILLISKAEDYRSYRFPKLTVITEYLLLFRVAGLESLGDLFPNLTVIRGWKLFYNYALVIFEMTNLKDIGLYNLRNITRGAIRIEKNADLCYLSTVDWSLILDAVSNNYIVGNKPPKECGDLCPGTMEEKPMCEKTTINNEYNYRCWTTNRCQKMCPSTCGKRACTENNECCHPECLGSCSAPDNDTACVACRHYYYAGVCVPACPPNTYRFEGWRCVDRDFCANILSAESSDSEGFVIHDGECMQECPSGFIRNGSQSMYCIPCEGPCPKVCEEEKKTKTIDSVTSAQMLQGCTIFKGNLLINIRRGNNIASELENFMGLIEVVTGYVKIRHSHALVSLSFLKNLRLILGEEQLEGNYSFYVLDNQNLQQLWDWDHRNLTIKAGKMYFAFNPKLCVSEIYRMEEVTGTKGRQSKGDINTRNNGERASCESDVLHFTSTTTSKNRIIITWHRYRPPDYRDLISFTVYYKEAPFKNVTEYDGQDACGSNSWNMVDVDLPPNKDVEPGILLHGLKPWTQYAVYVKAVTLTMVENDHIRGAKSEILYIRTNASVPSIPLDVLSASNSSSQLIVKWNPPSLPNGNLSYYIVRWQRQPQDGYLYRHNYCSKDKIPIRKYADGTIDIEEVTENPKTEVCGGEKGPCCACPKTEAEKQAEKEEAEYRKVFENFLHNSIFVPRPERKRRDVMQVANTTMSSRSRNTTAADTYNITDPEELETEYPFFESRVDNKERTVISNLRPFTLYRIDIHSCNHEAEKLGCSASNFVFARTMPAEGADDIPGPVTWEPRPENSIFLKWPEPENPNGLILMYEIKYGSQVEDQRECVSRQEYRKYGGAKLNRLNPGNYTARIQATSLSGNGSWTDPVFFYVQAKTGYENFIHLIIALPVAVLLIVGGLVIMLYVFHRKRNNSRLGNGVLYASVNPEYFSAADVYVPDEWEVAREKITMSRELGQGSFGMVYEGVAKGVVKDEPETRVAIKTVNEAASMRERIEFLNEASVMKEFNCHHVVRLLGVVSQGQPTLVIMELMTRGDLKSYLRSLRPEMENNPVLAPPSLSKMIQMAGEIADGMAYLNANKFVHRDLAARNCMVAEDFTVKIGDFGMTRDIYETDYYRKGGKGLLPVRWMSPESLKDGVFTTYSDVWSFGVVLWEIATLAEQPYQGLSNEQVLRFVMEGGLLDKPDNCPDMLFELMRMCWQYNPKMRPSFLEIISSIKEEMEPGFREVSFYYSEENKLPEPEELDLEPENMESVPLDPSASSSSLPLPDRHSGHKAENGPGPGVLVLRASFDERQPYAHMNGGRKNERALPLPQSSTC

| SMILES | inhibition at 10 µM [1] [%] | inhibition at 10 µM [2] [%] | inhibition at 10 µM [3] [%] | inhibition at 30 µM [4] [%] | melting point [°C] | inhibition at 10 µM [5] [%] |
| --- | --- | --- | --- | --- | --- | --- |
| COc1ccc(NC(=O)c2ccc3[nH]c(-c4ccc[nH]c4=O)c(-c4ccc(-c5ccccc5)cc4)c3c2)cc1 [Compound 48, 3-biphenyl-4-yl-N-(4-methoxyphenyl)-2-(2-oxo-1,2-dihydropyridin-3-yl)-1H-indole-5-carboxamide] | 50 to 79 | 50 to 79 | 50 to 79 | < 50 | 154 to 162 | – |
| O=C(NCCCn1ccnc1)c1ccc2[nH]c(-c3ccc[nH]c3=O)c(-c3ccccc3)c2c1 [Compound 6, N-[3-(1H-imidazol-1-yl)propyl]-2-(2-oxo-1,2-dihydropyridin-3-yl)-3-phenyl-1H-indole-5-carboxamide] | 50 to 79 | 80 to 100 | 80 to 100 | – | 153 to 157 | 50 to 79 |
| O=C(c1ccc2[nH]c(-c3ccc[nH]c3=O)c(-c3ccc(-c4ccccc4)cc3)c2c1)N1CCc2ccccc2C1 [Compound 47, 3-[3-biphenyl-4-yl-5-(3,4-dihydroisoquinolin-2(1H)-ylcarbonyl)-1H-indol-2-yl]pyridin-2(1H)-one] | 50 to 79 | 50 to 79 | < 50 | – | 101 to 110 | < 50 |
| O=C(NCCCN1CCOCC1)c1cc2c3c(c1)c(-c1ccccc1)c(-c1ccc[nH]c1=O)n3CCC2 [Compound 7, N-(3-morpholin-4-ylpropyl)-2-(2-oxo-1,2-dihydropyridin-3-yl)-1-phenyl-5,6-dihydro-4H-pyrrolo[3,2,1-ij]quinoline-8-carboxamide] | < 50 | < 50 | – | – | 151 to 158 | < 50 |
| O=C(c1ccccc1)N1CCC(c2c(-c3ccc[nH]c3=O)[nH]c3ccccc23)CC1 [Compound 87, 3-[3-(1-benzoylpiperidin-4-yl)-1H-indol-2-yl]pyridin-2(1H)-one] | < 50 | < 50 | < 50 | – | 294 to 296 | 80 to 100 |
| O=C(NCC1CCNCC1)c1ccc2[nH]c(-c3ccc[nH]c3=O)c(-c3ccccc3)c2c1 [Compound 4, 2-(2-oxo-1,2-dihydropyridin-3-yl)-3-phenyl-N-(piperidin-4-ylmethyl)-1H-indole-5-carboxamide] | – | – | – | 80 to 100 | 189 to 191 | – |
| CC(C)c1cccc(-c2c(-c3ccc[nH]c3=O)[nH]c3ccc(C(=O)NCCCN4CCOCC4)cc23)c1 [Compound 71, 3-(3-isopropylphenyl)-N-(3-morpholin-4-ylpropyl)-2-(2-oxo-1,2-dihydropyridin-3-yl)-1H-indole-5-carboxamide] | 80 to 100 | 80 to 100 | 80 to 100 | – | 89 to 92 | 80 to 100 |
| O=c1[nH]cccc1-c1[nH]c2ccccc2c1C1CCN(Cc2ccccc2)CC1 [Compound 85, 3-[3-(1-benzylpiperidin-4-yl)-1H-indol-2-yl]pyridin-2(1H)-one] | < 50 | < 50 | – | – | 135 to 139 | < 50 |
| O=c1[nH]cccc1-c1[nH]c2ccccc2c1C1CCN(S(=O)(=O)c2ccccc2)CC1 [Compound 86, 3-{3-[1-(phenylsulfonyl)piperidin-4-yl]-1H-indol-2-yl}pyridin-2(1H)-one] | < 50 | < 50 | < 50 | – | 215 to 217 | < 50 |
| O=C(NCCCN1CCOCC1)c1ccc2[nH]c(-c3ccc[nH]c3=O)cc2c1 [Compound 55, N-(3-morpholin-4-ylpropyl)-2-(2-oxo-1,2-dihydropyridin-3-yl)-1H-indole-5-carboxamide] | – | < 50 | – | 80 to 100 | 130 to 132 | < 50 |
| O=C(NC1CCNCC1)c1ccc2[nH]c(-c3ccc[nH]c3=O)c(-c3ccccc3)c2c1 [Compound 3, 2-(2-oxo-1,2-dihydropyridin-3-yl)-3-phenyl-N-piperidin-4-yl-1H-indole-5-carboxamide] | – | – | – | 50 to 79 | 233 to 236 | – |
| O=C(c1ccc2[nH]c(-c3ccc[nH]c3=O)c(-c3ccccc3)c2c1)N1CCc2ccccc2C1 [Compound 28, 3-[5-(3,4-dihydroisoquinolin-2(1H)-ylcarbonyl)-3-phenyl-1H-indol-2-yl]pyridin-2(1H)-one] | 80 to 100 | 80 to 100 | 80 to 100 | 80 to 100 | 171 to 177 | – |
| O=C(NCCCN1CCOCC1)c1ccc2[nH]c(-c3ccc[nH]c3=O)c(-c3cc(Cl)cc(Cl)c3)c2c1 [Compound 75, 3-(3,5-dichlorophenyl)-N-(3-morpholin-4-ylpropyl)-2-(2-oxo-1,2-dihydropyridin-3-yl)-1H-indole-5-carboxamide] | 80 to 100 | 80 to 100 | 80 to 100 | – | 125 to 130 | 80 to 100 |
| O=C(Nc1ccc(F)cc1Cl)c1ccc2[nH]c(-c3ccc[nH]c3=O)c(-c3ccccc3)c2c1 [Compound 18, N-(2-chloro-4-fluorophenyl)-2-(2-oxo-1,2-dihydropyridin-3-yl)-3-phenyl-1H-indole-5-carboxamide] | 50 to 79 | 50 to 79 | 80 to 100 | < 50 | – | < 50 |
| Cc1ccc(-c2c(-c3ccc[nH]c3=O)[nH]c3ccc(C(=O)NCCCN4CCOCC4)cc23)cc1F [Compound 67, 3-(3-fluoro-4-methylphenyl)-N-(3-morpholin-4-ylpropyl)-2-(2-oxo-1,2-dihydropyridin-3-yl)-1H-indole-5-carboxamide] | 50 to 79 | 80 to 100 | 80 to 100 | 80 to 100 | – | 50 to 79 |
| O=C(NCCCN1CCOCC1)c1ccc2[nH]c(-c3ccc[nH]c3=O)c(-c3cc(F)ccc3F)c2c1 [Compound 60, 3-(2,5-difluorophenyl)-N-(3-morpholin-4-ylpropyl)-2-(2-oxo-1,2-dihydropyridin-3-yl)-1H-indole-5-carboxamide] | 50 to 79 | 80 to 100 | 80 to 100 | 80 to 100 | – | 50 to 79 |
| O=C(NCCCN1CCOCC1)c1ccc2[nH]c(-c3ccc[nH]c3=O)c(-c3ccc(Cl)cc3)c2c1 [Compound 69, 3-(4-chlorophenyl)-N-(3-morpholin-4-ylpropyl)-2-(2-oxo-1,2-dihydropyridin-3-yl)-1H-indole-5-carboxamide] | < 50 | < 50 | < 50 | 80 to 100 | – | 50 to 79 |
| O=C(NCCc1ccccn1)c1ccc2[nH]c(-c3ccc[nH]c3=O)c(-c3ccc(-c4ccccc4)cc3)c2c1 [Compound 39, 3-biphenyl-4-yl-2-(2-oxo-1,2-dihydropyridin-3-yl)-N-(2-pyridin-2-ylethyl)-1H-indole-5-carboxamide] | 80 to 100 | 80 to 100 | 80 to 100 | 50 to 79 | – | 80 to 100 |
| Cc1ccccc1-c1c(-c2ccc[nH]c2=O)[nH]c2ccc(C(=O)NCCCN3CCOCC3)cc12 [Compound 58, 3-(2-methylphenyl)-N-(3-morpholin-4-ylpropyl)-2-(2-oxo-1,2-dihydropyridin-3-yl)-1H-indole-5-carboxamide] | < 50 | < 50 | < 50 | 80 to 100 | – | < 50 |
